The target of data set [1] is T1, Glucocorticoid receptor (Homo sapiens, UniProt P04150).
T1 sequence (P04150 whole entry): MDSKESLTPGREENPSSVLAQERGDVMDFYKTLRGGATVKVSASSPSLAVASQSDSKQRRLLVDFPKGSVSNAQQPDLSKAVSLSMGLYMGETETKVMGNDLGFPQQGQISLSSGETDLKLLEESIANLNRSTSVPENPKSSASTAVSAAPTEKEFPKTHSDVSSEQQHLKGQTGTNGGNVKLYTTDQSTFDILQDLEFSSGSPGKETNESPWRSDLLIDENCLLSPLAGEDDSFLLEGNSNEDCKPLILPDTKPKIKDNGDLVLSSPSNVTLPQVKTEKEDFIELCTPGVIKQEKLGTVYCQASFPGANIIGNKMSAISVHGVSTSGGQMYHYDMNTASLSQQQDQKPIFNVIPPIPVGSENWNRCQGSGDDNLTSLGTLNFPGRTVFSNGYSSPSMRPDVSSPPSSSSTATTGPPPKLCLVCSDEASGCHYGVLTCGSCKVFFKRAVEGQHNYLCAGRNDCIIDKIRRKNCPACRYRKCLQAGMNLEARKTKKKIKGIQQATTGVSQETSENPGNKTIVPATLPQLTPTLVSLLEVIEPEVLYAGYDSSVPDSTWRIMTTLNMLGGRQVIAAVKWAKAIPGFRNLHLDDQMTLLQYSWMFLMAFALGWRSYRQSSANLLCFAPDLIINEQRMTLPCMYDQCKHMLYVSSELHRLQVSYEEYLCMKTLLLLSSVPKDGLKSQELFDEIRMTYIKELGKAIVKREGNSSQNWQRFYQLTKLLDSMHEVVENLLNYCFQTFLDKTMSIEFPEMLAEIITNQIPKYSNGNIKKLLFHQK
Description: Agonist activity at glucocorticoid receptor in human Chago K1 cells assessed as gene transrepression by Lac-Z reporter gene assay

For data set [2], the target named is T1, Glucocorticoid receptor. This is another data set of the same source.
Description: Binding affinity to human glucocorticoid receptor by fluorescence polarization assay
In data set [3] the target is T1, Glucocorticoid receptor. The source holds these as a separate data set.
Description: Agonist activity at glucocorticoid receptor in human PBMC assessed as inhibition of LPS-stimulated TNF-alpha release
Data set [4] can be described thus: Lipophilicity, log D of the compound at pH 7.4. The note with it: buffer. It counts as physicochemical.
Data set [5] relates to Rattus norvegicus. Kind of data set: Antiinflammatory activity in rat assessed as inhibition of LPS-induced leukocyte influx to broncho-alveolar lavage fluid at 10 ug/kg, administered intratracheally 2 hrs prior to LPS challenge measured after 4 hrs relative to control. The class given is functional. The settings on record: inhaled or nasal.
Data set [6] concerns Rattus norvegicus. Kind of data set: Antiinflammatory activity in rat assessed as inhibition of LPS-induced leukocyte influx to broncho-alveolar lavage fluid at 30 ug/kg, administered intratracheally 2 hrs prior to LPS challenge measured after 4 hrs relative to control. The class given is functional. The settings on record: inhaled or nasal.
Data set [7] deals with Rattus norvegicus. Kind of data set: Antiinflammatory activity in rat assessed as inhibition of LPS-induced leukocyte influx to broncho-alveolar lavage fluid at 100 ug/kg, administered intratracheally 2 hrs prior to LPS challenge measured after 4 hrs relative to control. It counts as functional. The settings on record: inhaled or nasal.
For data set [8], the system named is Rattus norvegicus. The experiment in a line: Antiinflammatory activity in rat assessed as inhibition of LPS-induced lung edema at 10 ug/kg, administered intratracheally 2 hrs prior to LPS challenge measured after 4 hrs relative to control. It counts as functional. The note with it: inhaled or nasal.
Data set [9] relates to Rattus norvegicus. The experiment in a line: Antiinflammatory activity in rat assessed as inhibition of LPS-induced lung edema at 30 ug/kg, administered intratracheally 2 hrs prior to LPS challenge measured after 4 hrs relative to control. The class given is functional. The note with it: inhaled or nasal.
For data set [10], the system named is Rattus norvegicus. Kind of data set: Antiinflammatory activity in rat assessed as inhibition of LPS-induced lung edema at 100 ug/kg, administered intratracheally 2 hrs prior to LPS challenge measured after 4 hrs relative to control. The class given is functional. The settings on record: inhaled or nasal.
In data set [11] the test system is Mus musculus. The experiment in a line: Antiinflammatory activity in mouse acute cigarette smoke model assessed as inhibition of neutrophil influx to broncho-alveolar lavage fluid at 30 ug/kg, administered intratracheally 30 mins prior to first cigarette smoke challenge every day for 4 days measured after 24 hrs post last cigarette smoke challenge relative to control. The settings on record: inhaled or nasal.

We go through 37 molecules from ChEMBL document CHEMBL3259563, “The discovery of potent and selective non-steroidal glucocorticoid receptor modulators, suitable for inhalation” (Bioorg Med Chem Lett, 2014).

By IC50 is commonly meant the midpoint of a concentration-inhibition curve. The logD is lipophilicity at a set pH, counting ionised and neutral species. In general, inhibition in vivo refers to the relative decrease from the control value, in per cent.

In [1], `COc1cccc(-n2ncc3c(NC[C@H](C)NS(=O)(=O)c4c(C)cc(C)cc4C)cccc32)c1` gave an IC50 of 41 nM.

As for `Cc1cc(C)c(S(=O)(=O)N[C@@H](C)CNc2cccc3c2cnn3-c2ccc(Cl)cc2)c(C)c1`, the IC50 stood at 3.4 nM in data set [2], 3.7 nM in data set [1] and 13 nM in [3].

Consider `Cc1cc(C)c(S(=O)(=O)N[C@@H](C)CNc2cccc3c2cnn3-c2cccnc2)c(C)c1`, for which the half-maximal inhibitory concentration (IC50) in [1] came out at 2.6 nM; in [3] it was 2 nM.

On to `Cc1cc(C)c(S(=O)(=O)N[C@@H](C)CNc2cccc3c2cnn3-c2ccc(F)c(C)c2)c(C)c1`, for which the half-maximal inhibitory concentration (IC50) in data set [2] turned out to be 4.1 nM; in data set [1], 14 nM; in [3], 23 nM.

Regarding `Cc1cc(C)c(S(=O)(=O)N[C@@H](C)CNc2cccc3c2cnn3-c2ccc(F)nc2)c(C)c1`, the IC50 in data set [3] was 23 nM.

As to `Cc1cc(C)c(S(=O)(=O)N[C@@H](C)CNc2cccc3c2cnn3-c2cccc(F)c2)c(C)c1`, the IC50 was found to be 6.1 nM in data set [1] and 28 nM in data set [3].

Take `Cc1cc(C)c(S(=O)(=O)N[C@@H](C)CNc2cccc3ncccc23)c(C)c1`: the half-maximal inhibitory concentration (IC50) in data set [1] came to 1800 nM.

`Cc1ccc(-n2ncc3c(NC[C@H](C)NS(=O)(=O)c4c(C)cc(C)cc4C)cccc32)cc1`: the 50% inhibitory concentration (IC50) in data set [1] amounted to 4.5 nM; in data set [3], 12 nM.

In [2], `Cc1cc(C)c(S(=O)(=O)N[C@@H](C)CNc2ccc3ncccc3c2)c(C)c1` returned a half-maximal inhibitory concentration (IC50) of 10000 nM.

In the case of `Cc1cc(C)c(S(=O)(=O)N[C@@H](C)CCc2ccccc2)c(C)c1`, in [2], the IC50 was determined as 55 nM.

In data set [2], `Cc1cc(C)c(S(=O)(=O)NC(C)CSc2cccc3c2cnn3-c2ccc(F)cc2)c(C)c1` (racemic) had a 50% inhibitory concentration (IC50) of 7.7 nM.

Turning to `Cc1nn(C2CCCC2)c(C)c1S(=O)(=O)N[C@@H](C)CNc1cccc2c1cnn2-c1ccc(F)cc1`, the concentration for half-maximal inhibition (IC50) in [1] was found to be 9.7 nM.

With `Cc1ccc(S(=O)(=O)N[C@@H](C)COc2cccc3ncccc23)c(C)c1`, the IC50 in data set [2] came out at 1600 nM.

As to `C[C@@H](COc1cccc2ncccc12)NS(=O)(=O)c1c(Cl)cc(Cl)cc1Cl`, the IC50 is 80 nM in data set [2] and 2400 nM in data set [1].

With `Cc1cccc(-n2ncc3c(NC[C@H](C)NS(=O)(=O)c4c(C)cc(C)cc4C)cccc32)c1`, the half-maximal inhibitory concentration (IC50) was 6.6 nM in data set [1] and 8.8 nM in data set [3].

In data set [4], `Cc1cc(C)c(S(=O)(=O)N[C@@H](C)COc2cccc3cnccc23)c(C)c1` came in with a pH-dependent lipophilicity (logD) of 4.1. The molecule further yielded an IC50 in data set [2] of 18 nM.

As to `Cc1cc(C)c(S(=O)(=O)N[C@@H](C)CCc2cccc3c2cnn3-c2ccc(F)cc2)c(C)c1`, the IC50 came out at 23 nM in data set [1] and 12 nM in data set [3].

Take `Cc1cc(C)c(S(=O)(=O)NC(COc2cccc3c2cnn3-c2ccc(F)cc2)C(F)(F)F)c(C)c1` (racemic): the IC50 in data set [2] amounted to 3.8 nM; in [1], 14 nM; in data set [3] it was 36 nM.

Consider `Cc1cc(C)c(S(=O)(=O)N[C@@H](C)COc2c(C)cccc2C)c(C)c1`, for which it took 85 nM to reach half-maximal inhibition in data set [2] (IC50).

In the case of `Cc1cc(C)c(S(=O)(=O)N[C@@H](C)COc2cccc3ncccc23)c(C)c1`, the 50% inhibitory concentration (IC50) was determined as 240 nM in [2] and 960 nM in [1].

For the molecule `C[C@@H](COc1cccc2ncccc12)NS(=O)(=O)c1ccccc1C#N`, the IC50 in [2] is above 10000 nM.

`Cc1nn(C2CCCC2)c(C)c1S(=O)(=O)N[C@@H](C)CNc1cccc2c1cnn2-c1ccc(C#N)cc1`: the 50% inhibitory concentration (IC50) came to 16 nM in [1] and 13 nM in [3].

In [2], `C[C@@H](COc1cccc2ncccc12)NS(=O)(=O)c1ccccc1` had a half-inhibitory concentration (IC50) above 10000 nM.

As for `Cc1nn(C2CCCC2)c(C)c1S(=O)(=O)N[C@@H](C)CNc1cccc2c1cnn2-c1cncnc1`, in data set [1], the concentration for half-maximal inhibition (IC50) was 43 nM.

In turn, `Cc1cc(C)c(S(=O)(=O)N[C@@H](C)CNc2cccc3[nH]ncc23)c(C)c1` yielded an IC50 in data set [1] of 760 nM.

Take `Cc1cc(C)c(S(=O)(=O)N[C@H](CNc2cccc3c2cnn3-c2ccc(F)cc2)C(C)C)c(C)c1`: the IC50 in data set [2] worked out at 35 nM; in data set [1], 12 nM; in data set [3] it was 2.1 nM.

Turning to `CCC(=O)O[C@]1(C(=O)SCF)[C@H](C)C[C@H]2[C@@H]3C[C@H](F)C4=CC(=O)C=C[C@]4(C)[C@@]3(F)[C@@H](O)C[C@@]21C` [FLUTICASONE PROPIONATE], the values for the inhibition in vivo at 0.01 mg/kg in data set [5] and in [8] were 84% and 64%, respectively. In addition, the results for the inhibition in vivo at 0.03 mg/kg in data set [6], in [9] and in data set [11] were 92%, 78% and 0%, respectively. Besides, the inhibition in vivo at 0.1 mg/kg in data set [7] amounted to 94%; in data set [10], 116%.

In the case of `Cc1cc(C)c(S(=O)(=O)N[C@@H](C)CNc2cccc3c2cnn3-c2ccccc2)c(C)c1`, the IC50 came out at 1.5 nM in [1] and 1.6 nM in data set [3].

For `Cc1cc(C)c(S(=O)(=O)N[C@@H](C)CNc2cccc3nc(C)ccc23)c(C)c1`, the IC50 in [2] turned out to be 160 nM; in data set [1], 2200 nM.

The molecule `Cc1cc(C)c(S(=O)(=O)N[C@@H](C)CNc2ccc3cnccc3c2)c(C)c1` came in with a half-inhibitory concentration (IC50) in [2] of 10000 nM.

The molecule `Cc1nn(C2CCCC2)c(C)c1S(=O)(=O)N[C@@H](C)COc1cccc2cnccc12` returned a logD in [4] of 3.5. It took 32 nM to reach half-maximal inhibition in data set [2] (IC50).

Turning to `Cc1cc(C)c(S(=O)(=O)N[C@@H](C)CNc2ccc(C)c3ncccc23)c(C)c1`, inhibition in data set [1] was half-maximal at 1100 nM (IC50).

Consider `C[C@@H](COc1cccc2ncccc12)NS(=O)(=O)c1cccc(C#N)c1`, for which half-maximal inhibition in data set [2] (IC50) was put at 1800 nM.

As to `COc1ccccc1S(=O)(=O)N[C@@H](C)COc1cccc2ncccc12`, in [2], the 50% inhibitory concentration (IC50) was above 10000 nM.

As to `Cc1ccc(S(=O)(=O)N[C@@H](C)COc2cccc3cnccc23)c(C)c1`, in data set [2], the half-maximal inhibitory concentration (IC50) was 410 nM.

As for `Cc1cc(C)c(S(=O)(=O)N[C@@H](C)CNc2cccc3c2cnn3-c2cncnc2)c(C)c1`, the IC50 in [2] came to 5.3 nM; in data set [1] it was 6.9 nM; in data set [3], 8.1 nM.

Molecule `Cc1cc(Cl)cc(Cl)c1S(=O)(=O)N[C@@H](C)COc1cccc2ncccc12` yielded an IC50 in [2] of 220 nM.
